Key:
[1] = system: cumulus-oocyte complexes (cumulus expansion); assay: Cumulus expansion assay in vitro; type: cell-based, mice; conditions: competing with PGE2
Method: 2.2 Cumulus Expansion Assay In Vitro
Folliculogenesis was induced in immature female mice (strain : CD1 (ICR) from Charles River) at an age of 14-18 days by a single dose (intraperitoneal) of 10 I.U. of PMSG (Pregnant Mare Serum Gonadotropin; Sigma G-4877, Lot 68H0909). 47-50 hours after the injection, the ovaries were removed and the cumulus-oocyte complexes were removed. The cumulus complex is not yet expanded at this stage.
The cumulus-oocyte complexes were then incubated with prostaglandin E2 (PGE2) (0.3 μM), vehicle control (ethanol) or test substances for 20-24 hours.
Medium: alpha-MEM medium with 0.1 mM IBMX, pyruvates (0.23 mM) glutamines (2 mM), pen/strep 100 IU/ml pen. and 100 μg/ml strep. and HSA (8 mg/ml). Cumulus expansion was then established through the division into four stages (according to Vanderhyden et al. Dev Biol. August 1990;140(2):307-317).

[2] = target: T1, human Prostaglandin E2 (Subtype EP2) receptor (Homo sapiens, UniProt P43116); assay: cAMP antagonism assay (HTRF cAMP detection, in presence of PGE2); type: cell-based; conditions: cAMP antagonism test
T1 construct: host or cells: cells in a cell culture plate
T1 sequence (P43116 whole entry): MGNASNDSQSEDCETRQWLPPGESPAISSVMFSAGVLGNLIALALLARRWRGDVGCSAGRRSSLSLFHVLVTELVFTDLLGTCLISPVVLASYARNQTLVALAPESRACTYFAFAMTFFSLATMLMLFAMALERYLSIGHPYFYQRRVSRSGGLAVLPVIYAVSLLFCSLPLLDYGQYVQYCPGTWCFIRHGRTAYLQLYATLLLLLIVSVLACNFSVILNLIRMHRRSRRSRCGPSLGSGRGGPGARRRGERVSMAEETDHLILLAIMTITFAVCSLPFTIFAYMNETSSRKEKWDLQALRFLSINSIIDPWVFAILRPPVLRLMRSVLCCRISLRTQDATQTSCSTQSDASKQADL
Text: 1. Detection of the Antagonism of the Human Prostaglandin E2 (Subtype EP2) Receptor Signal
1.1 Principle of Detection
(§1) The binding of PGE2 to the EP2 subtype of the human PGE2 receptor induces activation of membrane-associated adenylate cyclases and leads to the formation of cAMP. In the presence of the phosphodiesterase inhibitor IBMX, cAMP which has accumulated due to this stimulation and been released by cell lysis is employed in a competitive detection method. In this assay, the cAMP in the lysate competes with cAMP-XL665 for binding of an Eu cryptate-labelled anti-cAMP antibody.
(§2) The two lo signals are measured in a suitable measuring instrument with a time lag, i.e. after the background fluorescence has declined.
1.2.1 Antagonism assay (data for each well of a 384-well plate):
The substance solutions (0.75 μl) introduced into an assay plate and 30% DMSO were dissolved in 16 μl of a KRSB+IBMX stimulation solution (1×Krebs-Ringer Bicarbonate Buffer; Sigma-Aldrich # K-4002; including 750 μM 3-isobutyl-1-methylxanthine Sigma-Aldrich # I-7018), and then 15 μl thereof were transferred into a media-free cell culture plate which had been washed with KRSB shortly beforehand.
After preincubation at room temperature (RT) for 30 minutes, 5 μl of a 4×PGE2 solution (11 nM) were added, and incubation was carried out in the presence of the agonist at RT for a further 60 min (volume: ˜20 μl) before the reaction was then stopped by adding 5 μl of lysis buffer and incubated at RT for a further 20 min (volume: ˜25 μl). The cell lysate was then transferred into a measuring plate and measured in accordance with the manufacturer's information (cyclic AMP kit Cisbio International #62AMPPEC).

[3] = target: T1, human Prostaglandin E2 (Subtype EP2) receptor; assay: cAMP agonism assay (cellular agonism test); type: cell-based
Text: as §1, §2
1.2.2 Agonism Assay (Data for each Well of a 384-Well Plate): […]
After incubation at room temperature (RT; volume: ˜15 μl) for 60 minutes, the reaction was then stopped by adding 5 μl of lysis buffer and incubated at RT for a further 20 min (volume: ˜20 μl). The cell lysate was then transferred into a measuring plate and measured in accordance with the manufacturer's instructions (cyclic AMP kit Cisbio International #62AMPPEC).

SMILES | IC50 [2] | other results
CC(C)Oc1ccc2c(=O)c3cc(C(=O)O)ccc3oc2c1 [AH 6809, reference compound] |  | suppression of cumulus expansion ([1]; concentration of 100-200 μM): approx. 30%
COc1ccc(C(=O)NCCc2c(C)[nH]c3c(Cl)cccc23)cc1OC [Example 1, N-[2-(7-chloro-2-methyl-1H-indol-3-yl)ethyl]-3,4-dimethoxy-benzamide] | 320 nM | 
COc1ccc(C(=O)NCCc2c(C)[nH]c3c(Cl)ccc(Cl)c23)cc1OC [Example 5, N-[2-(4,7-dichloro-2-methyl-1H-indol-3-yl)ethyl]-3,4-dimethoxybenzamide] | 1900 nM | 

Further compounds by falling IC50 [2], results first:

IC50 [2] | SMILES | other results
720 nM | COc1ccc(C(=O)NCCc2c(C)[nH]c3c(Cl)ccc(C)c23)cc1OC [Example 17, N-[2-(7-chloro-2,4-dimethyl-1H-indol-3-yl)ethyl]-3,4-di-methoxybenzamide] | 
670 nM | O=C(NCCc1c(C(F)(F)F)[nH]c2c(Cl)cccc12)c1cc2cc(Cl)ccc2[nH]1 [Example 30, N-[2-(7-chloro-2-trifluoromethyl-1H-indol-3-yl)ethyl]-5-chloro-1H-indole-2-carboxamide] | 
120 nM | Cc1[nH]c2c(Cl)ccc(F)c2c1CCNC(=O)c1cc2cc(F)ccc2[nH]1 [Example 8, N-[2-(7-chloro-4-fluoro-2-methyl-1H-indol-3-yl)ethyl]-5-fluoro-1H-indole-2-carboxamide] | suppression of cumulus expansion ([1]; concentration 5 μM): approx. 60%
47 nM | Cc1[nH]c2c(Cl)cccc2c1CCNC(=O)c1cc2cc(F)ccc2[nH]1 [Example 7, N-[2-(7-chloro-2-methyl-1H-indol-3-yl)ethyl]-5-fluoro-1H-indole-2-carboxamide] | effect in the cellular agonism test [3]: no inhibition

Source: patent US20100029598A1, “Extended Benzamide Derivatives as Modulators of the EP2 Receptor” (Bayer Schering Pharma AG, priority 2008, published 2010)
